The values below come from PMC6099558, “N-oxide alkaloids from Crinum amabile (Amaryllidaceae)” (Molecules : A Journal of Synthetic Chemistry and Natural …, 2018).

In brackets after ≈: the same amount, converted by molar mass. Read-outs that look alike come from different tables or passages of the source.

Series [1] relates to Trypanosoma brucei rhodesiense (trypomastigotes forms, STIB 900 strain). Nature of the series: In vitro antiprotozoal activity against T. brucei rhodesiense. The format is cell-based. The conditions noted are these: read-out: T. brucei rhodesiense IC50. The procedure:
(§1) In vitro tests for the biological activity of the alkaloids isolated from C. amabile against Trypanosoma brucei rhodesiense (trypomastigotes forms, STIB 900 strain), Trypanosoma cruzi (axenic grown amastigotes forms, Tulahuen C4 strain), Leishmania donovani (amastigotes forms, MHOM-ET-67/L82 strain), and Plasmodium falciparum (intraerythrocytic forms, IEF, NF54 strain) and a cytotoxicity test against the mammalian L6 cell line from rat skeletal myoblasts were carried out at the Swiss Tropical and Public Health Institute (Swiss TPH, Basel, Switzerland) according to established protocols as described by Orhan and co-workers. The reference drugs used in these assays were melarsoprol, benznidazole, miltefosine, chloroquine and podophyllotoxin, respectively.

A short description of series [2]: Cytotoxicity test against mammalian L6 cell line. The format is cell-based. As to conditions: L6 cells (rat skeletal myoblasts). The procedure: as §1
In series [3] the test system is Leishmania donovani (amastigotes forms, MHOM-ET-67/L82 strain). Nature of the series: In vitro antiprotozoal activity against L. donovani. As to conditions: read-out: L. donovani IC50. The series is classed as cell-based. Here is the method:
as §1

Series [4] concerns Plasmodium falciparum (intraerythrocytic forms, IEF, NF54 strain). Nature of the series: In vitro antiprotozoal activity against P. falciparum NF54. The format is cell-based. Here is the method:
as §1

In series [5] the target is AChE (Electrophorus electricus, UniProt O42275). Nature of the series: Acetylcholinesterase inhibitory activity (Ellman method, modified). The series is classed as biochemical. Here is the method:
(§2) Cholinesterase inhibitory activities were analyzed as by Ellman and co-workers with some modifications as by López and co-workers. Fifty microliters of AChE or BuChE phosphate buffer (8m M K2HPO4, 2.3 mM NaH2PO4, 0.15 M NaCl, pH 7.5) and 50 μL of the sample dissolved in the same buffer were added to the wells. The plates were incubated for 30 min at room temperature before 100 μL of the substrate solution (0.1 M Na2HPO4, […], and 0.6 mM acetylthiocholine iodide, ATCI, or 0.24 mM butyrylthiocholine iodide, BTCI, in Millipore water, pH 7.5) was added. The absorbance was read in a Labsystem microplate reader (Helsinki, Finland) at 405 nm after 10 min. […] In a first step, samples were assessed at 10, 100 and 200 µg mL^−1 towards both enzymes. […] Enzyme activity was calculated as a percentage compared to an assay using a buffer without any inhibitor. The cholinesterase inhibitory data were analyzed with the software Microsoft Office Excel 2010.
A general note: In Ellman's method for cholinesterases, released thiocholine reacts with DTNB.

In series [6] the test system is Trypanosoma cruzi (axenic grown amastigotes forms, Tulahuen C4 strain). The series is described as follows: In vitro antiprotozoal activity against T. cruzi. The series is classed as cell-based. The conditions noted are these: read-out: T. cruzi IC50. Here is the method:
as §1

The target in series [7] is BuChE (Equus caballus, UniProt P81908). Nature of the series: Butyrylcholinesterase inhibitory activity (Ellman method, modified). The format is biochemical. The procedure:
as §2

Series [8] concerns chloroquine-sensitive strain of Plasmodium falciparum. More on the design: method as in PMID 8229016. The conditions noted are these: read-out: IC50 against chloroquine-sensitive strain of Plasmodium falciparum; cited from earlier work.
For series [9], the system named is chloroquine-resistant strain of Plasmodium falciparum. As to conditions: read-out: IC50 against chloroquine-resistant strain of Plasmodium falciparum; cited from earlier work.
The mark [10] stands for this setting: trypomastigotes forms, STIB 900 strain.
Setting [11] is: amastigotes forms, Tulahuen C4 strain.
[12] abbreviates: amastigotes forms, MHOM-ET-67/L82 strain.
[13] abbreviates: intraerythrocytic forms, NF54 strain, read-out: P. falciparum IC50.

Sequence of AChE (O42275 24-633): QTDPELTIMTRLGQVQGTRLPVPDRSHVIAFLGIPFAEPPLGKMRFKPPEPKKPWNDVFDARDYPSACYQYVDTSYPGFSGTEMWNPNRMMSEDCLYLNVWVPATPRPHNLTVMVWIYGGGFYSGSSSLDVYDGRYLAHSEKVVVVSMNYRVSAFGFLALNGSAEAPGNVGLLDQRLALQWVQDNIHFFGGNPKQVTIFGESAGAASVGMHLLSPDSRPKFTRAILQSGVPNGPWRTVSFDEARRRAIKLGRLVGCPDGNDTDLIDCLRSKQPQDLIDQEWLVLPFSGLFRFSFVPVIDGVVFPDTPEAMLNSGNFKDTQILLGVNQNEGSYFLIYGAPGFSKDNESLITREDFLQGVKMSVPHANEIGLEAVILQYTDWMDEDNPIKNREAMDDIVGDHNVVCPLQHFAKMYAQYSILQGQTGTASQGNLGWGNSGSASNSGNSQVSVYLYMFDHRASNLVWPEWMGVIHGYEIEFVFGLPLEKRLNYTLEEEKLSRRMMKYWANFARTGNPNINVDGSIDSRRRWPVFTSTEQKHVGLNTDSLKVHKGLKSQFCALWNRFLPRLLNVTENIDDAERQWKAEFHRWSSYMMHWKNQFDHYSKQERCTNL
Sequence of BuChE (P81908 whole entry): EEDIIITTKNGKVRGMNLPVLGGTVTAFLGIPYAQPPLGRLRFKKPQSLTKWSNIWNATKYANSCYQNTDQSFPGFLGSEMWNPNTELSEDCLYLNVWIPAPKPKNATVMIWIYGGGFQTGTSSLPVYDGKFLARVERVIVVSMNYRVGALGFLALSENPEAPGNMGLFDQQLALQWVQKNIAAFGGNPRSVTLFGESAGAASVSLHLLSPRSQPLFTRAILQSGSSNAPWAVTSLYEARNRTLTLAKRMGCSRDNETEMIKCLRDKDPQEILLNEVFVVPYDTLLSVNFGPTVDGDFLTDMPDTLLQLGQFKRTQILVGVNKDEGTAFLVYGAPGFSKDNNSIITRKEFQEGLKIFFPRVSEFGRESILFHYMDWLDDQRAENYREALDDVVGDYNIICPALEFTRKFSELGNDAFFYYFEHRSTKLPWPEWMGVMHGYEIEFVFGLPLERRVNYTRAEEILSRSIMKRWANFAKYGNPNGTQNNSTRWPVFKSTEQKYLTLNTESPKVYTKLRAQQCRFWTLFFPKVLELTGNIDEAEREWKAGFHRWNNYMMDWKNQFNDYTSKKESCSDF

With `Nc1nc(N)nc(Nc2ccc([As]3SCC(CO)S3)cc2)n1` (centres unmarked) [melarsoprol, reference compound], in [1], the IC50 (as a rule, the concentration at which inhibition is half-maximal) was determined as 0.003 ± 0.001 µg/mL.
`COc1cc([C@@H]2c3cc4c(cc3[C@H](O)[C@H]3COC(=O)[C@H]23)OCO4)cc(OC)c1OC` [podophyllotoxin, reference compound] yielded an IC50 in [2] of 0.004 ± 0.0007 µg/mL (≈ 0.00965 µM).
Take `CCCCCCCCCCCCCCCCOP(=O)([O-])OCC[N+](C)(C)C` [miltefosine, reference compound]: the IC50 in series [3] was 0.515 ± 0.06 µg/mL (≈ 1.26 µM).
Take `CCN(CC)CCCC(C)Nc1ccnc2cc(Cl)ccc12` (centres unmarked) [chloroquine, reference compound]: the IC50 in [4] (NF54, read-out: P. falciparum IC50) was determined as 0.004 ± 0.0007 µg/mL (≈ 0.0125 µM).
With `CO[C@H]1C=C[C@@]23CCN(Cc4cc5c(cc42)OCO5)[C@@H]3C1` [Buphanisine (8), Buphanisine], the “AChE inhibitory activity (in words)” value in series [5] is reported as “low”. For the same molecule, the IC50 in series [1] (setting [10]) was 16.5 ± 0.57 µg/mL (≈ 57.8 µM); in series [6] (setting [11]), 55.5 ± 4.6 µg/mL (≈ 195 µM); in series [3] (setting [12]) it was over 100 µg/mL; in [4] (setting [13]), 4.28 ± 0.18 µg/mL (≈ 15 µM); in series [2], 72.8 ± 5.02 µg/mL (≈ 255 µM).
With `CN1CCC23c4cc5c(cc4C4OC(CCC12)C3O4)OCO5` (centres unmarked) [Augustamine (22), Augustamine], the “AChE inhibitory activity (in words)” value in [5] was “did not show any cholinesterase inhibitory activities”. The “BuChE inhibitory activity (in words)” value in [7] is “did not show any cholinesterase inhibitory activities”. For the same molecule, the IC50 in series [1] (setting [10]) is 19.2 ± 2.97 µg/mL (≈ 63.7 µM); in [6] (setting [11]) it was 54 ± 4.53 µg/mL (≈ 179 µM); in series [3] (setting [12]), over 100 µg/mL; in series [4] (setting [13]) it was 20.4 ± 0.21 µg/mL (≈ 67.5 µM); in series [2], 81.55 ± 0.64 µg/mL (≈ 271 µM).
As for `O[C@H]1C=C[C@@]23CCN(Cc4cc5c(cc42)OCO5)[C@@H]3C1` [Crinine (10), Crinine], the half-maximal inhibitory concentration (IC50) in series [1] (setting [10]) is 18.9 ± 0.78 µg/mL (≈ 69.8 µM); in series [6] (setting [11]), 57.5 ± 6.86 µg/mL (≈ 212 µM); in series [3] (setting [12]) it was over 100 µg/mL; in series [4] (setting [13]), 30.9 ± 2.19 µg/mL (≈ 114 µM); in series [2], over 100 µg/mL.
Take `CO[C@@H]1C[C@@H]2[C@@]3(CC[N@@+]2([O-])Cc2cc4c(cc23)OCO4)[C@H]2O[C@@H]12` [Augustine N-oxide (1), Augustine N-oxide]: the IC50 is 58.9 ± 11.5 µg/mL (≈ 185 µM) in series [1] (setting [10]); 66.2 ± 11.8 µg/mL (≈ 209 µM) in series [6] (setting [11]); over 100 µg/mL in series [3] (setting [12]); 36.6 ± 4.74 µg/mL (≈ 115 µM) in series [4] (setting [13]); over 100 µg/mL in [2].
On to `O=C(Cn1ccnc1[N+](=O)[O-])NCc1ccccc1` [benznidazole, reference compound], for which, in series [6] (TULAHUEN), the IC50 is 0.865 ± 0.08 µg/mL (≈ 3.32 µM).
Turning to `CO[C@@H]1C[C@H]2N3CC[C@@]2(c2cc4c(cc2C3)OCO4)[C@H]2O[C@@H]12` [Augustine (13), Augustine], the “AChE inhibitory activity (in words)” value in series [5] was “moderate”. Moreover, the IC50 in series [1] (setting [10]) was 15.1 ± 1.06 µg/mL (≈ 49.9 µM); in [6] (setting [11]), 56 ± 0.71 µg/mL (≈ 186 µM); in series [3] (setting [12]), over 100 µg/mL; in series [4] (setting [13]) it was 14.2 ± 0.14 µg/mL (≈ 47.1 µM); in series [2], over 100 µg/mL; in series [8], 460 nM. Also, the IC50 in series [9] was 600 nM.
As for `CO[C@H]1C=C[C@@]23CC[N@@+]([O-])(Cc4cc5c(cc42)OCO5)[C@@H]3C1` [Buphanisine N-oxide (2), Buphanisine N-oxide], the IC50 in series [1] (setting [10]) was 55.2 ± 4.31 µg/mL (≈ 183 µM); in series [6] (setting [11]), 64 ± 1.34 µg/mL (≈ 213 µM); in [3] (setting [12]) it was over 100 µg/mL; in series [4] (setting [13]), 32.55 ± 0.07 µg/mL (≈ 108 µM); in series [2], over 100 µg/mL.
